{
  "source": "patent US4963570A",
  "about": "“1-(acetylaminophenyl)-2-aminopropanone derivatives and pharmaceutical compositions thereof” (Laboratoire L. Lafon, priority 1983, dated 1990)",
  "key": {"mice [1]": {"system": "mice", "test": "interaction with oxotremorine", "format": "in vivo, mouse", "conditions": "i.p.; dose not stated", "procedure": "CRL 41 224 is administered to groups of 6 mice 0.5 hour before the intraperitoneal injection of 0.5 mg/kg of oxotremorine."}, "mice [2]": {"system": "mice", "test": "interaction with reserpine", "format": "in vivo, mouse", "conditions": "i.p.; dose not stated", "procedure": "Four hours after the intraperitoneal injection of 2.5 mg/kg of reserpine, groups of 6 mice receive CRL 41 224."}, "man": {"system": "man", "test": "clinical trials", "format": "in vivo, human", "conditions": "man, tablets or gelatine capsules 5 to 75 mg, 1 to 3 per day"}, "CNS": {"system": "CNS", "test": "overall neuropsychopharmacological (CNS) profile", "format": "in vivo, mouse; rat", "conditions": "i.p., mice and rats; dose not stated; hydrochloride", "procedure": "The neuropsychopharmacological study of CRL 41 219 was carried out as indicated above for CRL 41 224.\nThe neuropsychopharmacological study of CRL 41 220 was carried out in accordance with the procedures given above for CRL 41 224."}, "male mice [3]": {"system": "male mice", "test": "interaction with proadifen: hypothermia induced by apomorphine", "format": "in vivo, mouse", "procedure": "(§1) Two series of experiments were carried out. In the first one, male mice (12 per dose, 12 control animals) were administered per I.P. route (i) with proadifen (75 mg/kg) at T-3 h, then (ii) with CRL 41 152 at T-0.5 h. At T=0 the mice were placed in actimeters, where their motility was recoded for 0.5 h. In the second one male mice (12 per dose, 12 control animals) were administered with proadifen and CRL 41 152 as indicated hereinabove, then subcutaneously with apomorphine (16 mg/kg) at T=0 in order to appreciate the potential variation of the hypothermia induced by apomorphine.\n(§2) In these two series CRL 41 152, in solution in distilled water, was administered per I.P. route to male mice in a volume of 20 ml/kg."}, "mice [4]": {"system": "mice", "test": "overall behavior and reactivities in mice", "format": "in vivo, mouse", "conditions": "mice, i.p.; dose not stated", "procedure": "(§3) Groups of three animals are observed before and then 0.25 hour, 0.50 hour, 1 hour, 2 hours, 3 hours and 24 hours after the administration of CRL 41 224."}, "rats [5]": {"system": "rats", "test": "interaction with apomorphine in rats", "format": "in vivo, rat", "conditions": "i.p., dose not stated", "procedure": "CRL 41 224 is administered to groups of 6 rats 0.5 hour before the subcutaneous injection of 0.5 mg/kg of apomorphine."}, "rats [6]": {"system": "rats", "test": "action on stereotypies in rats (α-methyltyrosine, haloperidol, reserpine)"}, "male mice [7]": {"system": "male mice", "test": "interaction with proadifen: motility", "format": "in vivo, mouse", "procedure": "as §1, §2"}, "mice [8]": {"system": "mice", "test": "interaction with barbital", "format": "in vivo, mouse", "conditions": "i.p.; dose not stated", "procedure": "Half an hour after the administration of CRL 41 224, groups of 10 mice receive an intraperitoneal injection of barbital (220 mg/kg)."}, "mice [9]": {"system": "mice", "test": "motility reduced by hypoxic aggression", "format": "in vivo, mouse", "conditions": "i.p., dose not stated", "procedure": "Half an hour after they have received CRL 41 224, the mice (10 per dose, 20 control animals) are subjected to acute hypobaric anoxia [pressure reduction of 600 mm Hg (i.e. about 8×10^4 Pa) in 90 seconds; release of vacuum in 45 seconds] and are then placed in an actimeter, where their motility is recorded for 10 minutes."}, "mice [10]": {"system": "mice", "test": "interaction with barbital", "format": "in vivo, mouse", "conditions": "gastric route"}, "rats [11]": {"system": "rats", "test": "overall behavior and reactivities in rats", "format": "in vivo, rat", "conditions": "i.p., dose not stated, hydrochloride", "procedure": "as §3"}, "mice [12]": {"system": "mice", "test": "motility reduced by habituation to the enclosure", "format": "in vivo, mouse", "conditions": "i.p., dose not stated", "procedure": "After they have stayed in the actimeters for 18 hours, the mice (6 per dose, 12 control animals) receive CRL 41 224. They are immediately returned to their respective enclosures and, half an hour later, their motility is recorded for 30 minutes."}, "[13]": {"system": "White New Zealand gravid female rabbits", "test": "teratogenic study", "format": "in vivo, rabbit"}, "[14]": {"system": "peripheral α-adrenergic stimulation", "test": "signs of peripheral adrenergic stimulation", "format": "in vivo, mouse; rat", "conditions": "i.p.; dose not stated", "procedure": "as §3"}, "male mice [15]": {"system": "male mice", "test": "influence of catecholamines on hyperactivity in mice", "format": "in vivo, mouse", "procedure": "A further series of assays was carried out on mice according to the teaching of S. L. HANDLEY et al. \"Influences of catecholamines on dexamphetamine, induced changes in locomotor activity\", Psychopharmacology 58, 283-288 (1978), in order to observe a potential influence of dopamine or moradrenaline on the hyperactivity induced by CRL 41 152.\nAfter a habituation period of 1.5 h to the actimeters, male mice (grouped into batches of 10 animals each and a control batch of 20 animals) were administered (under slight anesthesia with ether) per intraventriculocerebral injection (i.e. I.V.C. route) with (i) either 10 μg of noradrenaline, or 10 μg of dopamine or 10 μl (0.5 μl/second) of saline solution, then (ii) 5 minutes later, with CRL 41 152 (in solution in distilled water) per I.P. route in a volume of 20 ml/kg, immediately before replacing the mice in the actimeters vherein their motility was recorded for 1 hour by measuring the number of crossed rays per period of 5 minutes).\nBatches receiving CRL 41 152 per I.P. route with noradreanaline or dopamine per I.V.C. route were compared with (i) the control batch receiving the saline solution per I.V.C. route then distilled water per I.P. route, and (ii) batches receiving only noradrenaline, dopamine (per I.V.C. route) or CRL 41 152 (per I.P. route)."}, "mice [16]": {"system": "mice", "test": "action on the behavioral despair", "format": "in vivo, mouse", "conditions": "i.p., dose not stated", "text": "Half an hour after they have received CRL 41 224, groups of 6 mice are placed in a beaker filled with water to a height of 6 cm. The total period of immobility between the 2nd and 6th minutes following immersion is noted."}, "mice [17]": {"system": "mice", "test": "action on the spontaneous motility (actimeter)", "format": "in vivo, mouse", "conditions": "mice, i.p.; dose not stated", "procedure": "0.5 hour after they have received CRL 41 224, the mice (6 per dose, 12 control animals) are placed in an actimeter, where their motility is recorded for 30 minutes."}, "[18]": {"test": "water solubility of the product", "format": "physicochemical", "procedure": "The 39 g of 1-(4-acetylaminophenyl)-2-chloropropanone thus obtained are dissolved in 200 ml of isopropylamine. The resulting reaction medium is heated under reflux for 6 hours. The excess isopropylamine is evaporated off in vacuo. The evaporation residue, which is in the form of a viscous oil, is taken up with 200 ml of anhydrous ethanol and the hydrochloride is recipitated by means of a stream of HCl gas."}, "mice [19]": {"system": "mice", "test": "toxicity to grouped mice compared with isolated mice", "format": "in vivo, mouse"}, "mice [20]": {"system": "mice", "test": "interaction with apomorphine in mice", "format": "in vivo, mouse", "conditions": "i.p.; dose not stated", "procedure": "Groups of 6 mice receive CRL 41 224 0.5 hour before the subcutaneous injection of 1 or 16 mg/kg of apomorphine."}, "mice [21]": {"system": "mice", "test": "four plate test, traction and electric shock", "format": "in vivo, mouse", "conditions": "i.p.; dose not stated", "procedure": "The test is performed on groups of 10 mice 30 minutes after the administration of CRL 41 224."}, "rats [22]": {"system": "rats", "test": "interaction with amphetamine", "format": "in vivo, rat", "conditions": "rats, i.p.; dose not stated", "procedure": "Amphetamine (2 mg/kg) is injected intraperitoneally into groups of 6 rats 30 minutes after the administration of CRL 41 224."}, "[23]": {"conditions": "proadifen 75 mg/kg i.p. then CRL 41 152"}},
  "note": "Entries after “also recorded” stand apart in the source; their conditions may differ. Counter-ions that a name gives are not always drawn.",
  "data": [
    {"compound": "CC(=O)Nc1ccc(C(=O)C(C)NC(C)C)cc1", "note": "(centres unmarked) [CRL 41 152, 1-(4-acetylaminophenyl)-2-isopropylaminopropanone hydrochloride]", "values": [
      {"measurement": "hypothermia induced by oxotremorine", "setting": "mice [1]", "value": "antagonism of the hypothermia induced by apomorphine, oxotremorine"},
      {"measurement": "trembling caused by oxotremorine", "setting": "mice [1]", "value": "antagonism of the trembling caused by oxotremorine"},
      {"measurement": "hypothermia induced by reserpine", "setting": "mice [2]", "value": "antagonism of the hypothermia induced by apomorphine, oxotremorine or reserpine"},
      {"measurement": "ptosis induced by reserpine", "setting": "mice [2]", "value": "antagonism of the ptosis induced by reserpine"},
      {"measurement": "clinical result: depressions, hypersomnia and GELINEAU's disease", "setting": "man", "value": "excellent drug for treating depressions in man as well as hypersomnia and GELINEAU's disease"},
      {"measurement": "overall action on the CNS", "setting": "CNS", "value": "stimulant effects; also recorded: antidepressant effects"},
      {"measurement": "hypothermia induced by apomorphine", "setting": "male mice [3]; i.p., 8 and especially 32 mg/kg, apomorphine 16 mg/kg s.c.", "value": "antagonism vis-a-vis the hypothermia induced by apomorphine"},
      {"measurement": "righting behaviour and stereotypies induced by apomorphine", "setting": "male mice [3]; i.p., apomorphine 16 mg/kg s.c.", "value": "Neither proadifen, nor CRL 41 152, nor their combination modify the righting behaviour"},
      {"measurement": "effect of proadifen on antagonism vis-a-vis the hypothermic effect of apomorphine", "setting": "male mice [3]; [23]", "value": "does block the antagonism"},
      {"measurement": "excitation in mice", "setting": "mice [4]", "value": "excitation with hyperreactivity in mice"},
      {"measurement": "stereotypies induced by apomorphine", "setting": "rats [5]", "value": "potentiation of the stereotypies induced by apomorphine"},
      {"measurement": "effect of haloperidol on induced stereotypies", "setting": "rats [6]; haloperidol 0.25 mg/kg i.p. 0.5 h before", "value": "almost totally prevents the appearance of stereotypies"},
      {"measurement": "effect of haloperidol on induced stereotypies", "setting": "rats [6]; haloperidol 0.5 mg/kg i.p. 0.5 h before", "value": "totally inhibits the said stereotypies"},
      {"measurement": "suppression of induced stereotype movements by prior injection of alpha-methyltyrosine", "setting": "rats [6]; i.p.", "value": "not suppressed"},
      {"measurement": "effect of reserpine on induced stereotypies", "setting": "rats [6]; reserpine 4 mg/kg i.p. 24 hours before", "value": "only a moderate reduction of the stereotypies"},
      {"measurement": "inhibition by α-methyltyrosine of the induced stereotypies", "setting": "rats [6]; α-methyltyrosine 128 mg/kg i.p. 2.5 h before 30 mg/kg i.p. CRL 41 152", "value": 4, "unit": "%"},
      {"measurement": "spontaneous motility", "setting": "male mice [7]; i.p., administered alone", "value": "increases the spontaneous motility in mice"},
      {"measurement": "effect of proadifen on the induced hypermotility", "setting": "male mice [7]; [23]", "value": "does not cause a distinct reduction of the hypermotility"},
      {"measurement": "sleep induced by barbital", "setting": "mice [8]", "value": "antagonism of the sleep induced by barbital"},
      {"measurement": "motor recovery after hypoxic aggression", "setting": "mice [9]", "value": "an improvement in the motor recovery in mice after acute hypoxia"},
      {"measurement": "interaction with barbital, kinetic study", "setting": "mice [10]", "value": "clearly showed the interest of CRL 41 152 as awakening agent"},
      {"measurement": "stereotype movements in rats", "setting": "rats [11]", "value": "stereotype movements in rats; also recorded: induces stereotype movements"},
      {"measurement": "motor activity after habituation to the enclosure", "setting": "mice [12]", "value": "a resumption in the motor activity of mice accustomed to their enclosure"},
      {"measurement": "teratogenic effect", "setting": "[13]", "value": "does not exhibit any harmful teratogenic effect"},
      {"measurement": "exophthalmos", "setting": "[14]", "value": "absent"},
      {"measurement": "mydriasis", "setting": "[14]", "value": "mydriasis"},
      {"measurement": "peripheral adrenergic stimulation, overall", "setting": "[14]", "value": "effects which may reflect peripheral adrenergic stimulation"},
      {"measurement": "salivation", "setting": "[14]", "value": "absent"},
      {"measurement": "effect of prior dopamine on the motor activity caused", "setting": "male mice [15]; dopamine 10 μg I.V.C.", "value": "did not modify the motor activity caused by CRL 41 152"},
      {"measurement": "motor activity", "setting": "male mice [15]; i.p., 8 mg/kg, one-hour recording", "value": "distinct statistically significant increase in motor activity"},
      {"measurement": "effect of prior noradrenaline on the motor stimulant effect", "setting": "male mice [15]; noradrenaline 10 μg I.V.C.", "value": "distinct statistically significant decrease in the motor stimulant effect"},
      {"measurement": "period of immobility or \"despair\"", "setting": "mice [16]", "value": "a reduction in the immobility"},
      {"measurement": "spontaneous motility / motor activity", "setting": "mice [17]", "value": "an increase in the spontaneous motility in mice"},
      {"measurement": "water solubility", "setting": "[18]", "value": "very water-soluble"},
      {"measurement": "toxicity to grouped mice compared with isolated mice", "setting": "mice [19]", "value": "do not increase the toxicity to grouped mice"},
      {"measurement": "hypothermia induced by apomorphine", "setting": "mice [20]", "value": "antagonism of the hypothermia induced by apomorphine"},
      {"measurement": "convulsant effects of electric shock", "setting": "mice [21]", "value": "anticonvulsant effects"},
      {"measurement": "stereotypies induced by amphetamine", "setting": "rats [22]", "value": "potentiation of the stereotypies induced by apomorphine or amphetamine"}
    ]}
  ]
}
